{"source": "paper PMC5021161", "about": "(Environmental and Molecular Mutagenesis, 2016)", "key": {"[1]": {"settings": "2012, cited from earlier work"}, "ATF3": {"tested_on": "ATF3", "type": "cell-based, human", "settings": "5% ethanol S9, 4 hr + 3-4 hr recovery"}, "[2]": {"settings": "rats and mice; ref NTP, 1993; cited from earlier work"}, "[3]": {"settings": "B6C3F1 mouse bone marrow cells; ref NTP, 1993; cited from earlier work"}, "TK6 cells [4]": {"tested_on": "TK6 cells", "settings": "5% ethanol S9, 4 hr + 20 hr recovery"}, "[5]": {"tested_on": "TGx‐28.65 biomarker genes", "settings": "5% ethanol S9, 4 hr + 3-4 hr recovery"}, "CDKN1A": {"tested_on": "CDKN1A", "type": "cell-based, human", "settings": "5% ethanol S9, 4 hr + 3-4 hr recovery"}, "TK6 cells [6]": {"tested_on": "TK6 cells", "settings": "for % Relative Survival: 5% ethanol S9, 4 hr + 20 hr recovery"}, "bacteria": {"tested_on": "bacteria", "settings": "ref NTP, 1993; cited from earlier work"}, "mammalian cells": {"tested_on": "mammalian cells", "settings": "Chinese hamster ovary cells; ref NTP, 1993; cited from earlier work"}, "GADD45A": {"tested_on": "GADD45A", "type": "cell-based, human", "settings": "5% ethanol S9, 4 hr + 3-4 hr recovery"}, "TK6 cells [7]": {"tested_on": "TK6 cells", "settings": "for % MN: 5% ethanol S9, 4 hr + 20 hr recovery"}}, "note": "Read-outs that look alike come from different tables or passages of the source.", "data": [{"smiles": "c1ccoc1", "note": "[Furan]", "values": [{"measurement": "liver DNA strand breaks, comet assay", "setting": "[1]; Big Blue rats, ref McDaniel et al.", "value": "DNA damage at high doses"}, {"measurement": "DNA strand breaks by the comet assay", "setting": "[1]; F344 rats at cancer‐causing doses, ref Ding et al.", "value": "near‐linear dose‐dependent increase in DNA strand breaks"}, {"measurement": "ATF3 fold change vs vehicle control (+S9)", "setting": "ATF3; 2 mM", "value": 2.3, "unit": "fold change"}, {"measurement": "ATF3 fold change vs vehicle control (+S9)", "setting": "ATF3; 3 mM", "value": 3.1, "unit": "fold change"}, {"measurement": "ATF3 fold change vs vehicle control (+S9)", "setting": "ATF3; 5 mM", "value": 5.4, "unit": "fold change"}, {"measurement": "carcinogenicity", "setting": "[2]", "value": "causes liver cancer"}, {"measurement": "chromosomal aberrations", "setting": "[3]", "value": "causes chromosomal aberrations"}, {"measurement": "% Apoptotic cells", "setting": "TK6 cells [4]; 2 mM", "value": 7.07, "unit": "%"}, {"measurement": "% Apoptotic cells", "setting": "TK6 cells [4]; 3 mM", "value": 8.40, "unit": "%"}, {"measurement": "% Apoptotic cells", "setting": "TK6 cells [4]; 5 mM", "value": 15.26, "unit": "%"}, {"measurement": "Dendogram TGx‐28.65", "setting": "[5]; 2 mM", "value": "+"}, {"measurement": "NSC TGx‐28.65", "setting": "[5]; 2 mM", "value": "+"}, {"measurement": "PCA TGx‐28.65", "setting": "[5]; 2 mM", "value": "+"}, {"measurement": "Dendogram TGx‐28.65", "setting": "[5]; 3 mM", "value": "+"}, {"measurement": "NSC TGx‐28.65", "setting": "[5]; 3 mM", "value": "+"}, {"measurement": "PCA TGx‐28.65", "setting": "[5]; 3 mM", "value": "+"}, {"measurement": "Dendogram TGx‐28.65", "setting": "[5]; 5 mM", "value": "+"}, {"measurement": "NSC TGx‐28.65", "setting": "[5]; 5 mM", "value": "+"}, {"measurement": "PCA TGx‐28.65", "setting": "[5]; 5 mM", "value": "+"}, {"measurement": "CDKN1A fold change vs vehicle control (+S9)", "setting": "CDKN1A; 2 mM", "value": 3.2, "unit": "fold change"}, {"measurement": "CDKN1A fold change vs vehicle control (+S9)", "setting": "CDKN1A; 3 mM", "value": 5.3, "unit": "fold change"}, {"measurement": "CDKN1A fold change vs vehicle control (+S9)", "setting": "CDKN1A; 5 mM", "value": 9.8, "unit": "fold change"}, {"measurement": "% Relative Survival", "setting": "TK6 cells [6]; 2 mM", "value": 80.06, "unit": "%"}, {"measurement": "% Relative Survival", "setting": "TK6 cells [6]; 3 mM", "value": 64.52, "unit": "%"}, {"measurement": "% Relative Survival", "setting": "TK6 cells [6]; 5 mM", "value": 48.45, "unit": "%"}, {"measurement": "effect on RS, range finder", "setting": "TK6 cells [6]; 2% Aroclor‐induced S9, data not shown", "value": "did not cause a decline in RS"}, {"measurement": "Ames test", "setting": "bacteria", "value": "negative"}, {"measurement": "chromosomal aberrations", "setting": "mammalian cells", "value": "causes chromosomal aberrations"}, {"measurement": "GADD45A fold change vs vehicle control (+S9)", "setting": "GADD45A; 2 mM", "value": 1.4, "unit": "fold change"}, {"measurement": "GADD45A fold change vs vehicle control (+S9)", "setting": "GADD45A; 3 mM", "value": 1.4, "unit": "fold change"}, {"measurement": "GADD45A fold change vs vehicle control (+S9)", "setting": "GADD45A; 5 mM", "value": 2.4, "unit": "fold change"}, {"measurement": "% MN", "setting": "TK6 cells [7]; 2 mM", "value": 1.57, "unit": "%"}, {"measurement": "% MN", "setting": "TK6 cells [7]; 3 mM", "value": 1.77, "unit": "%"}, {"measurement": "% MN", "setting": "TK6 cells [7]; 5 mM", "value": 2.78, "unit": "%"}, {"measurement": "clastogenicity (analysis of MN)", "setting": "TK6 cells [7]; 5% ethanol‐induced S9", "value": "clastogenic at high concentrations"}, {"measurement": "statistically significant % MN increase relative to controls", "setting": "TK6 cells [7]; for at least one concentration, definitive study", "value": "over twofold"}]}]}
